We go through 1 compound from patent US6646001B2, “Use of non-steroidal anti-inflammatory agents in combination with prostaglandin FP receptor agonists to treat glaucoma and ocular hypertension” (Alcon Manufacturing, Ltd., priority 1997, dated 2003).

This series is described as follows: nepafenac concentration in ocular tissues of rabbits following a single topical dose. The series is classed as in vivo. The following applies: topical ocular administration of 0.3% nepafenac, simple formulation without penetration enhancers. How it is done: The estimated concentration within the anterior chamber following topical ocular administration of 0.3% nepafenac to rabbits is 24 μM (see FIGS. 1 and 2). This concentration, achieved using a simple formulation without penetration enhancers, is in excess of the parent compounds' COX I and COX II IC50s. This enhanced bioavailability provides a significant advantage and is unexpected over other non-steroidal anti-inflammatory drugs as well as amide derivatives of non-steroidal anti-inflammatory drugs. The compounds disclosed in the '034 patent, the contents of which are incorporated herein by reference, are ester and amide derivatives of 3-benzoylphenylacetic acid.

In the case of `NC(=O)Cc1cccc(C(=O)c2ccccc2)c1N` [nepafenac, 2-Amino-3-benzoyl-phenylacetamide], the “estimated concentration within the anterior chamber” value was 24 µM.
